Measurements taken from publication PMC11649784, “Re-design and evaluation of diclofenac-based carborane-substituted prodrugs and their anti-cancer potential” (Scientific Reports, 2024).

Columns and labels:
[1] = system: HCT116 cells; experiment: MTT viability assay, HCT116; format: cell-based, human; settings: 72 h, mean±SD; read-out: IC50 [μM] (n = 3) HCT116 MTT
Experimental: (§1) In a preliminary test, the stability of all compounds dissolved in the cell medium (c = 100 μM, T = [drawing 47] ) for 72 h was validated by HPLC (see Supporting Information). Cell lines were incubated with the respective compounds in a concentration range of 1.56–100 μM for 72 h, and cell viability was measured using 3-(4,5-dimethylthiazol-2-yl)-2,5-diphenyltetrazolium bromide (MTT) and crystal violet (CV) assays. […] As MTT tests gave inconsistent results, possibly due to interference of the compound with mitochondrial respiration, for the further evaluation only the CV results are considered[97],[98].
(§2) The biological study was performed on a murine colon adenocarcinoma cell line (MC38), two human colorectal carcinoma cell lines (HCT116 and HT29), and a human fetal lung fibroblast cell line (MRC-5). All cell lines are commercially available and were obtained from the American Type Culture Collection (ATCC). The human cell lines were kept in HEPES-buffered RPMI-1640 medium supplemented with 10 [drawing 141] heat-inactivated FCS, 2 mM L-glutamine, 0.01 [drawing 142] sodium pyruvate, penicillin (100 units mL^−1), and, streptomycin ( [drawing 143] mL^-1). The MC38 cell line was maintained in DMEM medium additionally supplemented with 1 [drawing 144] non-essential amino acids. Cells were grown at [drawing 145] in a humidified atmosphere with 5 [drawing 146] [drawing 147] . Peritoneal exudate cells (PECs) were isolated from healthy C57BL/6 mice (males, n = 3, 3 months old, weight 22–25 g) by performing an ice-cold PBS peritoneal lavage. Mice were sacrificed by cervical dislocation. Cells were cultivated for 4 h when nonadherent population was removed by washing in PBS, and additionally cultivated overnight in HEPES-buffered RPMI-1640 medium supplemented with 5 [drawing 148] heat-inactivated FCS before treatment with experimental drugs. Animal handling and protocol for isolation of PECs were performed according to European Union rules, and the ARRIVE guidelines 2.0.
(§3) For the viability tests, MC38, HCT116, and HT29 cells were seeded in 96-well plates at a density of 2 [drawing 149] 103, 5 [drawing 150] 103, and 6 [drawing 151] 10^3 cells/well, respectively. To determine whether the drug affected the viability of healthy, non-malignant cells, MRC-5 and PECs were seeded in 96-well plates at a density of 8 [drawing 152] 103 and 2 [drawing 153] 10^5 cells/well, respectively. For the flow cytometric analyses, MC38 cells were seeded in 6-well plates at 5 [drawing 154] 10^4 cells/well. For morphological assessment of nuclei and the detection of autophagy, MC38 cells were seeded in 2-well chamber slides at 1.5 [drawing 155] 10^4 cells/well.
(§4) After 72 h, cell viability was determined using MTT and CV tests. First, the supernatant from the wells was discarded and the cells were incubated with an MTT solution (0.5 mg mL^−1). After half an hour, the purple formazan crystals formed were dissolved in DMSO. For CV staining of the cells, the cells were fixed with 4 [drawing 157] PFA for 10 min and then stained with a 0.02 [drawing 158] CV solution for 15 min, all at room temperature (RT). The cells were then washed with tap water, air-dried and the dye was dissolved in 33 [drawing 159] acetic acid. For both viability tests, the absorbance of the developed colors was measured using an automated microplate reader at 570 nm with a reference wavelength of 670 nm. The results were expressed as a percentage of the control values of the untreated cells, which were arbitrarily set at 100 [drawing 160] . IC50 values, defined as 50 [drawing 161] inhibitory concentration, were calculated using a four-parameter logistic function and presented as mean±SD. All biological experiments were performed in triplicates. To evaluate the nature of the detected autophagy, a combined treatment with compound 3 and the autophagy inhibitors chloroquine (Chlq) and 3-methyladenine (3-MA) was carried out. […] After 72 h, cell viability was determined by CV assay.

[2] = system: human fetal lung fibroblast cell line MRC-5; experiment: Viability of non-malignant MRC-5 cells; format: cell-based; settings: column head not given
Experimental: as §2, with “Animal handling and protocol for isolation of PECs were performed according to European Union rules, and the ARRIVE guidelines 2.0.” left out
After 72 h, cell viability was determined using MTT and CV tests. […] For both viability tests, the absorbance of the developed colors was measured using an automated microplate reader at 570 nm with a reference wavelength of 670 nm. The results were expressed as a percentage of the control values of the untreated cells, which were arbitrarily set at 100 [drawing 160] . IC50 values, defined as 50 [drawing 161] inhibitory concentration, were calculated using a four-parameter logistic function and presented as mean±SD. […] To evaluate the nature of the detected autophagy, a combined treatment with compound 3 and the autophagy inhibitors chloroquine (Chlq) and 3-methyladenine (3-MA) was carried out. […] After 72 h, cell viability was determined by CV assay.

[3] = Stability in solution, air and moisture; settings: storage
[4] = system: MC38 cells; experiment: Acridine orange staining for autophagosomes; format: cell-based, murine; settings: IC50 concentration, 72 h
Experimental: For morphological assessment of cell nuclei, MC38 cells were seeded overnight in 2-well chamber slides and then treated with the IC50 concentration of compound 3 for 72 h. At the end of the incubation period, cells were fixed with 4 [drawing 168] PFA for 15 min at RT. Staining of cells was performed with PI solution (0.1 [drawing 169] Triton X-100, 0.5 M EDTA pH 8, 50 μg mL^− 1 RNase, and 50 [drawing 170] mL^− 1 PI - final concentrations in PBS) for 1–2 min at RT. After washing in PBS, the cells were mounted in a fluorescence microscopy medium (Fluoromount- [drawing 171] , eBioscience, San Diego, CA, USA). The slides were analyzed with a ZeissAxio Observer Z1 inverted fluorescence microscope (Carl Zeiss AG, Oberkochen, Germany) at 400 [drawing 172] magnification. For the detection of autophagosomes, AO staining of cells seeded in 2-well chamber slides was applied. […] The dye was then removed, the cells were rinsed with PBS and immediately evaluated via fluorescence microscopy at 400 [drawing 175] magnification using the Leica DM4 B microscope equipped with a DFC7000 T camera (Leica Microsystems CMS GmbH, Wetzlar, Germany).

[5] = system: MC38 cells; experiment: Crystal violet (CV) viability assay, MC38; format: cell-based, murine; settings: 72 h
Experimental: as §1, §2, §3, §4

[6] = system: MC38 cells; experiment: DHR 123 ROS/RNS production, flow cytometry; format: cell-based, murine; settings: IC50 concentration, 72 h
Experimental: (§5) For all flow cytometric analyses, MC38 cells were seeded overnight and then treated with the IC50 concentration of compound 3 for 72 h. The cells were harvested, washed, and stained according to the manufacturer’s instructions for each method. To determine whether the compound induces apoptosis, cells were double stained with AnnV-FITC and PI (15 μg mL^–1) for 15 min at RT in the dark. To detect caspase activity, cells were stained with the FITC-conjugated caspase inhibitor ApoStat for 30 min at [drawing 162] . To detect cell proliferation, MC38 cells were stained with CFSE (1 μM) for 10 min at [drawing 163] prior to seeding and then treated as previously described. To detect intracellular production of Reactive oxygen/nitrogen Species (ROS/RNS), MC38 cells were prestained with DHR 123 (1 [drawing 164] M) for 20 min at [drawing 165] , then seeded and exposed to an IC50 concentration of compound 3. After 72 h incubation, all samples were washed, resuspended in PBS and fluorescence intensity was analyzed using a CytoFLEX [drawing 166] flow cytometer (Beckman Coulter, Pasadena, CA, USA), while the data obtained was evaluated using the [drawing 167] software program.

[7] = system: MC38 cells; experiment: ApoStat caspase activity, flow cytometry; format: cell-based, murine; settings: IC50 concentration, 72 h
Experimental: as §5

IC50 [1]: 6.9 ± 1.5 µM
stability in air and moisture [3]: stable in air and moisture
Substance: 1-[2-(7,8-dicarba-nido-undecaborate)]- [drawing 126] H-indolium-2-amine [compound 3]
Selectivity index (IC50 value of primary vs. cancer cells), MRC-5, second cancer cell line column ([2]; presumably HCT116): 1.5
Selectivity index (IC50 value of primary vs. cancer cells), MRC-5, third cancer cell line column ([2]; presumably HT29): 0.98
Selectivity index (IC50 value of primary vs. cancer cells), MRC-5, first cancer cell line column ([2]; presumably MC38): 1.81
autophagosomes in the cytoplasm (acridine orange) [4]: intensified presence of autophagosomes
IC50 ([5]; mean±SD, read-out: IC50 [μM] (n = 3) MC38 CV): 9.5 ± 0.4 µM
cell viability on co-treatment with 3-methyladenine (3-MA) ([5]; IC50 concentration of 3 plus 3-MA 1 mM, CV assay): further viability decrease
cell viability on co-treatment with chloroquine (Chlq) ([5]; IC50 concentration of 3 plus Chlq 20 μM, CV assay): further viability decrease
production of ROS/RNS (DHR 123) [6]: strongly depleted
total caspase activity vs controls [7]: no significant change in total caspase activity
